According to the supplement of paper PMC5908809:

Experiments:
[1] = system: normal NK cells expanded with K562-aAPC; test: percent inhibition of viability; higher = more inhibition; conditions: 72 h, IL-2 2.5 ng/mL
Protocol: (§1)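 Drug sensitivity and resistance testing on K562-aAPC-expanded normal NK cells: 5 concentrations (10-fold steps over a 10,000-fold range), 72 h at 37 °C, viability by CellTiter-Glo normalised to DMSO and benzethonium chloride controls; DSS from the fitted curve.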

[2] = system: DERL-7 (IL-2 2.5 ng/mL); test: as above; conditions: 72 h
[3] = system: IMC-1 (IL-2 20 ng/mL); test: as above; conditions: 72 h
[4] = system: KAI3 (IL-2 2.5 ng/mL); test: as above; conditions: 72 h
[5] = system: KHYG-1 (IL-2 2.5 ng/mL); test: as above; conditions: 72 h
[6] = system: NK-92 (IL-2 2.5 ng/mL); test: as above; conditions: 72 h
[7] = system: NK-YS (IL-2 2.5 ng/mL); test: as above; conditions: 72 h
[8] = system: NKL (IL-2 2.5 ng/mL); test: as above; conditions: 72 h
[9] = system: SNK-6 (IL-2 2.5 ng/mL); test: as above; conditions: 72 h
[10] = system: YT (IL-2 2.5 ng/mL); test: as above; conditions: 72 h
[11] = system: normal primary NK cells, pool 1 (3 donors) (IL-2 2.5 ng/mL); test: as above; conditions: 72 h
[12] = system: normal primary NK cells, pool 1 (3 donors), resting (IL-2 0 ng/mL); test: as above; conditions: 72 h
[13] = system: normal primary NK cells, pool 2 (3 donors) (IL-2 2.5 ng/mL); test: as above; conditions: 72 h
[14] = system: normal primary NK cells, pool 3 (3 donors) (IL-2 2.5 ng/mL); test: as above; conditions: 72 h
[15] = system: normal NK cells expanded with K562-aAPC; test: drug sensitivity score (DSS) (DSS units); higher = more sensitive; extreme values may be limits of the assay; conditions: 72 h; IL-2 2.5 ng/mL
Protocol: as §1

[16] = system: DERL-7 (IL-2 2.5 ng/mL); test: as above; conditions: 72 h
[17] = system: IMC-1 (IL-2 20 ng/mL); test: as above; conditions: 72 h
[18] = system: KAI3 (IL-2 2.5 ng/mL); test: as above; conditions: 72 h
[19] = system: KHYG-1 (IL-2 2.5 ng/mL); test: as above; conditions: 72 h
[20] = system: NK-92 (IL-2 2.5 ng/mL); test: as above; conditions: 72 h
[21] = system: NK-YS (IL-2 2.5 ng/mL); test: as above; conditions: 72 h
[22] = system: NKL (IL-2 2.5 ng/mL); test: as above; conditions: 72 h
[23] = system: SNK-6 (IL-2 2.5 ng/mL); test: as above; conditions: 72 h
[24] = system: YT (IL-2 2.5 ng/mL); test: as above; conditions: 72 h
[25] = system: normal primary NK cells, pool 1 (3 donors) (IL-2 2.5 ng/mL); test: as above; conditions: 72 h
[26] = system: normal primary NK cells, pool 1 (3 donors), resting (IL-2 0 ng/mL); test: as above; conditions: 72 h
[27] = system: normal primary NK cells, pool 2 (3 donors) (IL-2 2.5 ng/mL); test: as above; conditions: 72 h
[28] = system: normal primary NK cells, pool 3 (3 donors) (IL-2 2.5 ng/mL); test: as above; conditions: 72 h

CC(C)(C)c1cnc(CSc2cnc(NC(=O)C3CCNCC3)s2)o1 [SNS-032] (max concentration tested 10000 nM)
percent inhibition of viability [%]
Conditions	1 nM	10 nM	100 nM	1000 nM	10000 nM
[1]	2.77	0	29.2	100	100
[2]	0.08	-3.51	77.5	100	100
[3]	-4.98	-6.51	97.6	99.1	98.8
[4]	-8.15	9.55	57.9	103	98.3
[5]	-2.99	-6.55	4.29	102	102
[6]	-11.5	-4.07	11.5	98.8	101
[7]	-1.14	9.07	83.6	100	99.8
[8]	-10.4	11.6	97.8	106	103
[9]	17.9	2.01	31.7	54	38
[10]	-0.35	4.14	57.7	103	101
[11]	-14.2	-9.83	88.9	98.2	98.8
[12]	-12.8	-19.9	79.9	91.5	93.9
[13]	-21	-13.7	80.7	94.5	96.5
[14]	-17.4	-11.5	48.5	98.1	99

Conditions	drug sensitivity score
[15]	22.3
[16]	26.9
[17]	29.5
[18]	25.1
[19]	18.7
[20]	19.8
[21]	29
[22]	32.3
[23]	13.4
[24]	24.9
[25]	28.1
[26]	26.1
[27]	26.6
[28]	23.9
